Paper PMC12040169 (PLOS Biology, 2025)

assay: in vitro; details: human, hela cells, % viability

Point of comparison: `CN(C(=O)C1(NC(N)=O)CC1)c1nc2c(s1)CC(c1ccccc1)CC2` (centres unmarked) [CBK306022], viability at 28.5 h, 10 µM 93%. Against it:
- O=C(O)COc1ccc(NC(=O)CSCc2ccc(Cl)cc2Cl)cc1 [CBK131700] — lower, 89.2%
- O=C(Nc1ccc(Cc2ccncc2)cc1)c1ccc(CSc2ccc(Cl)cc2)cc1 [CBK262526] — lower, 86.9%
- Cn1nnc2cc(C(=O)NCCN3CCCCC3CO)ccc21 (centres unmarked) [CBK307268] — lower, 84.3%
- Cc1ccc(C)c(OCC(=O)Nc2ccccc2C(=O)N2CCN(C)CC2)c1 [CBK269924] — lower, 91.1%
- CC(=O)Nc1ccc(CNC(=O)CN(C)Cc2cc(C)on2)cc1 [CBK307042] — lower, 82.4%
- COc1ccc(NC(=O)N[C@H]2C[C@@H](c3nc(-c4ccc(OC)cc4)no3)N(C)C2)cc1 [CBK288862] — higher, 102%
- CSc1nnc(C2CCCN2C(=O)[C@@H]2C[C@@H]3C=C[C@H]2C3)n1C (some centres unmarked) [CBK282012] — lower, 79.8%
- O=C(CC1Sc2ccccc2NC1=O)Nc1ccccc1[N+](=O)[O-] (centres unmarked) [CBK264014] — higher, 94.8%
- Cc1nc(S(=O)(=O)Nc2ccc3[nH]ccc3c2)cn1C [CBK156800] — lower, 68.3%
- O=C(COc1ccccc1)Nc1ccccc1N1CCNCC1 [CBK028279T] — higher, 108%
- COc1cc(F)cc(OC2CCNCC2)c1NC(=O)c1c(-c2ccccc2)noc1C [CBK050350T] — lower, 91.8%
- O=C(O)CCN1C(=O)c2ccc(NC(=O)CCc3ccccc3)cc2C1=O [CBK266422] — higher, 95.2%
- CN(C)c1cccc(Nc2cc(-c3ccco3)ncn2)c1 [CBK091014] — lower, 87.5%
- Cc1cc(C)nc(N2CCC(c3cc(CCOc4cccc(C(F)(F)F)c4)[nH]n3)C2)n1 (centres unmarked) [CBK285568] — lower, 78.7%
- CCc1ccc(CN(C(=O)c2cc(OC)c(OC)c(OC)c2)C2CCS(=O)(=O)C2)cc1 (centres unmarked) [CBK293961] — higher, 98.4%
- COC(=O)c1cccc(OCC(O)Cn2ccnc2)c1 (centres unmarked) [CBK307408] — higher, 102%
- O=C(Nc1nc2ccccc2[nH]1)NC1CCCCC1 [CBK288210] — lower, 86.1%
- Cc1cc(C)nc(N/C(=N/C(=O)Cc2ccccc2)N2CCC(C(N)=O)CC2)n1 [CBK263889] — higher, 107%
- CC(C)C(=O)N1CCCC(c2cc3cccnc3[nH]2)C1 (centres unmarked) [CBK284994] — higher, 96.4%
- Cn1c(Cc2ccc(Cl)cc2)nnc1SCc1nc2ccccc2c(=O)n1-c1cccc(C(F)(F)F)c1 [CBK268425] — higher, 112%
- CC(C)CCc1csc(C2CN3CCCC3CO2)n1 (centres unmarked) [CBK304266] — lower, 89.9%
- O=C(CC(CN1CCN(Cc2cccnc2)CC1)C(=O)O)Nc1ccc(Cl)cc1 (centres unmarked) [CBK286853] — lower, 91.5%
- CCOc1ccc(-n2nnnc2SCC(=O)c2ccc(Cl)c(Cl)c2)cc1 [CBK141942] — lower, 88.7%
- COc1ccc(-c2ccc3c(c2)COC2(CCCNC2)O3)c(OC)c1 (centres unmarked) [CBK105316] — higher, 103%
- Cc1c(Cl)cccc1S(=O)(=O)Nc1nc(C(C)Sc2nccn2C)ns1 (centres unmarked) [CBK200052] — lower, 88.5%
- COCOc1ccc(-c2ncc(OC)nc2NC(=O)c2cc(C)oc2C)cc1 [CBK145249] — higher, 97.6%
- COc1ccccc1NC(=O)C1C2NC(=S)NC1(C)Oc1c(OC)cccc12 (centres unmarked) [CBK269013] — higher, 107%
- CC(Oc1ccc(Cl)cc1Cl)C(=O)Nc1ccc(N2CCN(C)CC2)cc1 (centres unmarked) [CBK266780] — higher, 94.1%
- O=C(N/N=C/c1ccccn1)c1n[nH]c2c1CCCC2 [CBK262882] — lower, 90.8%
- COc1ccc(Br)cc1CN1CCC(N2CCN(c3ccccc3OC)CC2)CC1 [CBK264681G] — lower, 88.4%
- CCn1cc(C(=O)N2CCn3cc(C(F)(F)F)nc3C2)c(C)n1 [CBK283916] — higher, 93.8%
- O=C(Cn1c(=O)c2nncn2c2ncccc21)NC1CCCCCC1 [CBK288600] — lower, 92.3%
- OCc1ccccc1-c1cn2ccnc2c(N[C@@H]2CCN(Cc3ccccc3)C2)n1 [CBK037969] — higher, 104%

same assay, conditions: human, hela cells, % viability, bulk resorufin, single well

Compound `O=C(O)C1C2CCC(O2)C1C(=O)NC1CCCCC1` (centres unmarked) [CBK286848] has a viability at 28.5 h, 10 µM of 85%.
